Laboratory results from US8178578B2, “Chemical compounds” (The University of Manchester, priority 2006, dated 2012).

Experiments:
tubulin = assay: Test (b): inhibition of tubulin assembly; type: biochemical; conditions: absorbance at 350 nm over 20 minutes, 37° C.; read-out: IC50 - Assay (b), concentration for 50% inhibition of tubulin assembly
Method: The compounds of the present invention were also tested in assay (b) for their ability to inhibit tubulin assembly generally as described in McGown and Fox, “Structural and biochemical comparison of the anti-mitotic agents colchicine, combretastatin A-4 and amphethinile” Anti-Cancer Drug Design, 3, 249, 1989.
Samples were prepared in quartz cuvettes at 0° C. and contained 2-morpholinoethanesulfonic acid (MES) buffer (740 μl, 0.1 M MES, 1 mM ethylene glycol tetraacetic acid (EGTA), 0.5 mM MgCl2, pH 6.6), a compound of the present invention (10 μl, 1 mM in DMSO), tubulin (150 μl, 1/4 dilution of neat tubulin in MES buffer) and GTP (100 μl, 10 mM). The overall concentration of the compound in solution was therefore 10 μM. The cell was mixed well, dried and immediately placed in a Varian Cary 1 UV/Visible spectrophotometer, preheated to 37° C., along with a control sample containing MES buffer (740 μl), guanosine triphosphate (GTP) (100 μl, 10 mM), tubulin (150 μl, concentration as before) and DMSO (10 μl). The absorbance at 350 nm was recorded over a period of 20 minutes. The results were compared with the untreated control experiment to assess the relative degree of change in optical density. If assembly was less than 50% of that of the control, the experiment was repeated using decreasing concentrations (from 1 mM) of the compound in order to determine the activity.

[1] = Maximum tolerated dose by dose escalation in mice; conditions: mouse, in vivo, ip, single intraperitoneal dose, read-out: dose believed to be the maximum tolerated dose
[2] = test system: DLD-1 tumours (colon carcinomas); assay: Test (c): in vivo functional vasculature study with Hoechst 33342; parameters: species or system mice; conditions: single intraperitoneal dose at believed maximum tolerated dose
Method: The compounds of the present invention were also tested in in vivo functional vasculature studies using the fluorescent DNA-binding compound Hoechst 33342 (H33342)
Twenty-eight mice were used for test (c). The tumours used were colon carcinomas (DLD-1). Once the tumours reached a suitable size, mice were randomised and assigned into 10 groups with one control group and 3 groups for each compound to be tested (referred to as a “drug group”). Mice in a drug group were treated intraperitoneally with a single dose of a compound of the present invention at a dose believed to be the maximum tolerated dose for each compound being tested (the maximum tolerated dose being measured by dosing mice with increasing amounts of compound (normally doubling the previous dose) until it is either fatal or the animal suffers substantial weight loss or has become distressed). The dose for the compound of Example 1 was 60 mg/kg, for the compound of Example 2 was 120 mg/kg and for the compound of Example 3 was 270 mg/kg. The control group was untreated. H33342 was then injected intravenously at 40 mg/kg to the treated mice 4, 8 and 24 hours after administration of a compound of the present invention and after 24 hours to the untreated control mice. After one minute, each mouse was killed by cervical dislocation and the tumours were removed. Following this procedure the H33342 is confined to the nuclei of cells adjacent to the blood vessels. The tumours were wrapped in aluminium foil and immediately snap-frozen in liquid nitrogen and then stored at −80° C. until required for sectioning. For assessment of tumour vasculature, 10 μm-thick sections were cut using a cryostat (Leica, CM 1100, Scientific Laboratory Supplies, UK) with intervals between sections of 200 μm. The sections were placed on glass slides and allowed to air dry before viewing under a light microscope using UV illumination. Functional vascular volume was quantified using a point scoring system as described previously (Cowen S. E., Bibby M. C., Double J. A., Characterisation of the vasculature within a murine adenocarcinoma growing in different sites to evaluate the potential of vascular therapies, Acta Oncologica, 1995, 34, 357-60). Using a graticule with 22×16 grids, points crossing areas of fluorescence were counted as positive points. The total number of positive points was used to calculate the percentage of functional vasculature. Five sections per tumour and 5 fields per section were examined for tumours.
The results of test (c) are shown in FIG. 1, which is a graph showing relative percentage of control functional vasculature in the DLD-1 tumours after treatment with the compounds of Examples 1, 2 and 3 at doses of 60, 120 and 270 mg/kg respectively. Each point plotted in the graph of FIG. 1 represents the mean percentage of control functional vasculature for each time-point.

[3] = test system: K562 human chronic myelogenous leukaemia cell line; assay: Test (a): growth inhibitory activity, MTT assay; type: cell-based; conditions: 120 h, K562 cells, 5 days incubation, read-out: IC50 - Assay (a), concentration to inhibit 50% cell proliferation
Method: The compounds of the present invention were tested in test (a) for growth inhibitory activity (IC50) against the K562 human chronic myelogenous leukaemia cell line using a MTT assay generally as described in Tada, H., Shiho, O., Kuroshima, K., Koyama, M., Tsukamoto, K., J. Immunol. Methods 1986, 93, 157 and Edmondson, J. M., Armstrong, L. S., Martinez, A. O., J. Tissue Culture Methods 1988, 11, 15. Cells were cultured in Roswell Park Memorial Institute (RPMI) medium, free of antibiotics and containing L-glutamine ([…]), supplemented with 10% foetal calf serum. A single suspension of the K562 cell line was tested from an exponentially growing culture. The cells were counted using a haemocytometer, and diluted to 5×10^3/ml.
A compound of the present invention was dissolved in dimethylsulfoxide (DMSO) at a concentration of 50 μM and 4 μl of the DMSO solution was added to the cell suspension (4 ml). 1 ml of this solution was added to a further 1 ml of cell solution in a neighbouring tube, giving a compound half that of the initial dilution. The dilutions were continued in the same manner affording seven samples at different concentrations. One cell solution was left compound free as a control. Treated cells (200 μl) were pipetted in triplicate into a 96-well plate and incubated at 37° C. in a 5% CO2 in air atmosphere for 5 days. After this time, the plate was removed from the incubator and a solution of (3-(4,5-dimethylthiazol-2-yl)-2,5-diphenyltetrazolium bromide (MTT) (50 μl, 3 mg/ml in phosphate buffered saline (PBS)) was added to each well. After a further 3 hour incubation period under the same conditions, the medium was carefully removed from each well by suction and the resulting formazan precipitate was dissolved in DMSO (200 μl). The optical density of each well was then read (540 nm) using a Titretek Multiscan MCC/340 platereader. After processing and analysis through the application of an ‘in-house’ software package, the results obtained enabled the calculation of the drug dose required to inhibit cellular growth by 50% (GI50 or IC50 value).

SMILES	melting point [°C]	IC50 (tubulin) [nM]	MTD [1] [mg/kg]	functional vasculature in DLD-1 tumours compared to control tumours ([2]; 8 hours post-treatment)	functional vasculature in DLD-1 tumours compared to control tumours ([2]; 24 hours post-treatment)	IC50 [3] [nM]	functional vasculature in DLD-1 tumours compared to control tumours ([2]; 4 hours post-treatment)
COc1ccc2c(c1)COCc1cc(OC)c(OC)c(OC)c1-2 [Example 1, 1,2,3,9-Tetramethoxy-5,7-dihydrodibenzo[c,e]oxepine]	–	5700	60	significant decrease	significant decrease	110	–
COc1cc2c(c(OC)c1OC)-c1cc3c(cc1COC2)OCO3 [Example 2, 5,7-Dihydro-1,2,3-trimethoxybenzo[d][1,3]dioxolo[4,5-h][2]benzoxepin]	–	–	120	no difference	significant functional vasculature decrease	–	no difference
COc1ccc2c(c1O)COCc1cc(OC)c(OC)c(OC)c1-2 [Example 3, 3,9,10,11-Tetramethoxy-5,7-dihydrodibenzo[c,e]oxepin-4-ol]	–	800	270	restored back to above control level	significantly decreased	33.9	dramatically decreased
COc1ccc2c(c1OP(=O)([O][Na+])[O][Na+])COCc1cc(OC)c(OC)c(OC)c1-2 [Example 4, 3,9,10,11-Tetramethoxy-5,7-dihydrodibenzo[c,e]oxepin-4-yl disodium phosphate]	–	700	–	–	–	0.23	–
COc1ccc2c(c1N)COCc1cc(OC)c(OC)c(OC)c1-2 [Example 9, 3,9,10,11-Tetramethoxy-5,7-dihydrodibenzo[c,e]oxepin-4-amine]	–	900	–	–	–	2	–

Further lines, with some results ahead:

melting point [°C]	SMILES	IC50 (tubulin) [nM]	MTD [1] [mg/kg]	functional vasculature in DLD-1 tumours compared to control tumours ([2]; 8 hours post-treatment)	functional vasculature in DLD-1 tumours compared to control tumours ([2]; 24 hours post-treatment)	IC50 [3] [nM]	functional vasculature in DLD-1 tumours compared to control tumours ([2]; 4 hours post-treatment)
161	COc1cc2c(c(OC)c1OC)-c1ccc([N+](=O)[O-])cc1COC2 [Example 5, 1,2,3-Trimethoxy-9-nitro-5,7-dihydrodibenzo[c,e]oxepine]	–	–	–	–	–	–
145	COc1cc2c(c(OC)c1OC)-c1ccc(N)cc1COC2 [Example 6, 9,10,11-Trimethoxy-5,7-dihydrodibenzo[c,e]oxepin-3-amine]	–	–	–	–	–	–
164	COc1ccc2c(c1OS(=O)(=O)C(F)(F)F)COCc1cc(OC)c(OC)c(OC)c1-2 [Example 7, 3,9,10,11-Tetramethoxy-5,7-dihydrodibenzo[c,e]oxepin-4-yl trifluoromethanesulfonate]	–	–	–	–	–	–
